Data: patent publication US11191811B2, “Osteocalcin as a treatment for frailty associated with aging” (THE TRUSTEES OF COLUMBIA UNIVERSITY IN THE CITY OF NEW YORK, priority 2014, dated 2021)

How the values were obtained:
[1] = tested on: muscle; assay: Gene expression in muscle (qPCR); format: in vivo, mouse
Procedure: FIG. 31. Osteocalcin treatment increases muscle function in young and old WT mice. (A-B) Performance during endurance exercise of 3 month-old WT, Gprc6af/f and Gprc6aMck−/− female mice treated with Ocn (n=6-10 per group). (C) Performance during endurance exercise of 12 and 15 month-old WT female mice treated with Ocn (n=6-10 per group). (D) Western blot analysis of Akt phosphorylation (Ser473) in muscles of WT mice injected with Ocn (500 ng/g) after a single bout of exercise. (E) Western blot analysis of AMPK phosphorylation ([…]) in muscles of WT mice injected with Ocn (500 ng/g) after a single bout of exercise. (F) Western blot analysis of HSL phosphorylation (Ser563) in muscles of WT mice injected with Ocn (500 ng/g) after a single bout of exercise. (G) Uptake of ^3H-2-DG in glycolytic (Gly—white quadriceps) and oxidative (Ox—red quadriceps) muscles after a single bout of exercise in 15 month-old WT mice receiving Ocn before running (n=5 per group). (H) Performance during endurance exercise of 10 month-old WT mice receiving Ocn for 28 days (n=7 per group). (I) Expression of Cd36, Fatp1 and Cpt1b in gastrocnemius of 10 month-old WT mice receiving Ocn for 28 days (n=7 per group). (J) Western blot analysis of Akt phosphorylation (Ser473) in muscles of WT mice receiving Ocn for 28 days (n=7 per group). (K) Schematic representation of how osteocalcin signaling in myofibers and IL-6 cooperate to increase exercise capacity.
Serum osteocalcin, PINP, CTX, and insulin levels were measured using ELISA assays. Blood glucose level was measured using an Accu-Check glucometer. Urine 3-MHT was measured as previously described (Aranibar et al., 2011, Anal. Biochem. 410:84-91). Determination of cAMP accumulation was performed using a commercial kit (R&D). For gene expression, 1 μg of total RNA was reverse transcribed into cDNA. qPCR analyses were performed using a SYBER green master mix (Applied Biosciences) and a CFX-Connect real time PCR (Bio-Rad). Relative expression levels of each gene were normalized to that of Hprt or Gapdh. […]

[2] = tested on: glycolytic and oxidative muscles of WT mice; assay: In vivo 3H-2-DG glucose uptake in muscle after exercise; design: species or system mouse; conditions: older WT mice receiving Ocn (500 ng/g) before running; greater extent in oxidative than glycolytic muscles
Procedure: FIG. 31. Osteocalcin treatment increases muscle function in young and old WT mice. (A-B) Performance during endurance exercise of 3 month-old WT, Gprc6af/f and Gprc6aMck−/− female mice treated with Ocn (n=6-10 per group). (C) Performance during endurance exercise of 12 and 15 month-old WT female mice treated with Ocn (n=6-10 per group). (D) Western blot analysis of Akt phosphorylation (Ser473) in muscles of WT mice injected with Ocn (500 ng/g) after a single bout of exercise. (E) Western blot analysis of AMPK phosphorylation ([…]) in muscles of WT mice injected with Ocn (500 ng/g) after a single bout of exercise. […]
Glucose and insulin tolerance tests were performed as previously described (Lee et al., 2007, Cell 130:456-469). For in vivo glucose uptake, a bolus of 2-deoxy-d-[^3H]glucose (^3H-2-DG, Perkin Elmer) (10 μCi) was administered before an endurance run. ^3H-2-DG and ^3H-2-DG-6-P content in muscle was determined by liquid scintillation counter and normalized to muscle weight. […] GLUT4 translocation was determined by flow cytometry using an antibody against the extracellular domain of the GLUT4 protein (Santa Cruz, Sc-1606). […] To analyze mitochondrial function, myofibers were treated with three compounds in succession (oligomycin 10 μg/ml, FCCP 200 μM, rotenone 0.2 μM) and OCR was recorded following administration of each of them.

[3] = tested on: Osteocalcin−/− mice; assay: Bronchoconstriction of Osteocalcin−/− mice, intracerebroventricular infusion; format: in vivo, mouse; conditions: intracerebroventricular infusions in Osteocalcin−/− mice
[4] = tested on: wild type mice; assay: Glucose tolerance test after subcutaneous infusion; format: in vivo, mouse; conditions: 0.3 or 3 ng/hour subcutaneously for 14 days, 120 minutes following glucose injection
Procedure: FIG. 2. Osteocalcin subcutaneous infusion increases glucose tolerance in wild-type mice. Wild-type mice were infused subcutaneously with indicated doses of recombinant osteocalcin or PBS for 14 days before receiving a single injection of glucose. Blood glucose was measured thereafter at indicated times.
For glucose tolerance test (GTT), glucose (2 g/kg body weight (BW)) was injected intraperitoneally (IP) after an overnight fast and blood glucose was monitored using blood glucose strips and the Accu-Check glucometer (Roche) at indicated times.
In another in vivo experiment, the effect of uncarboxylated osteocalcin on glucose tolerance was investigated. Wild type mice were infused subcutaneously with either 0.3 or 3 ng/hour doses of recombinant uncarboxylated osteocalcin or PBS for 14 days before receiving a single injection of glucose. Blood glucose was measured thereafter at the indicated times.

[5] = tested on: wild type mice; assay: Body weight and gonadal fat pad mass during subcutaneous infusion; format: in vivo, mouse
Procedure: FIG. 4. Osteocalcin subcutaneous infusion decreases fat mass in wild-type mice. (A) Indicated doses of recombinant osteocalcin or PBS were infused subcutaneously for 28 days in wild-type mice. Body weight was recorded at indicated days. (B) Gonadal fat pad mass was measured after 28 days.
In another in vivo experiment, the effect of uncarboxylated osteocalcin on body weight and fat pad mass was monitored (FIG. 4). Wild type mice were infused subcutaneously for 28 days with PBS or uncarboxylated osteocalcin at 0.3, 1 or 3 ng/hour. […] Gonadal fat pad mass, measured after 28 days, decreased by about %18 with 3 ng/hour uncarboxylated osteocalcin treatment.

uncarboxylated osteocalcin: Recombinant uncarboxylated mouse osteocalcin, bacterially produced, purified on glutathione beads and cleaved from the GST subunit by thrombin (YLGASVPSPDPLEPTREQCELNPACDELSDQYGLKTAYKRIYGITI)
expression in muscles of Glut1 ([1]; at rest or after exercise): did not affect
expression in muscles of Glut4 ([1]; at rest or after exercise): did not affect
expression in muscle of Fatp1 ([1]; mini-pumps 90 ng/hour for 28 days): increase
glucose uptake in muscle [2]: increase
bronchoconstriction [3]: do not correct
glucose tolerance [4]: increased
glucose tolerance ([4]; listed as Osteocalcin): increases
decrease of gonadal fat pad mass ([5]; 3 ng/hour, after 28 days): ~18%
body weight ([5]; 0.3, 1 or 3 ng/hour subcutaneously for 28 days, highest dose most effective): slightly reduced
fat mass ([5]; subcutaneous infusion 28 days (FIG. 4 title)): decreases
gonadal fat pad mass ([5]; the other doses (0.3, 1 ng/hour), 28 days): did not significantly decrease
